Entries after “also recorded” stand apart in the source; their conditions may differ.
Assays:
Assay type in all cases: cell-based, human
[1] = test system: myeloma cells (RPMI-8226, U266, MM1S, H929); experiment: IncuCyte Zoom NK cell killing of myeloma cells
Source text: FIGS. 7A-7B illustrate the ability of peripheral blood NK cells with or without B7-H3-TriKE to kill myeloma cells in live imaging IncuCyte Zoom assays. FIG. 7A is a graph showing the effects with effector:target (E:T) ratios of 2:1 and 4:1 on MM1S cells. FIG. 7B is a graph showing the effects with effector:target (E:T) ratios of 2:1 and 4:1 on U266 cells.
(§1) FIGS. 8A-8D illustrate the ability of peripheral blood NK cells with or without B7-H3-TriKE to kill myeloma cells in live imaging IncuCyte Zoom assays. FIG. 8A is a graph showing the effects with effector:target (E:T) ratios of 2:1 and 4:1 on H929 cells. FIG. 8B is a graph showing the effects with effector:target (E:T) ratios of 2:1 and 4:1 on MM1S cells. FIG. 8C is a graph showing the effects with effector:target (E:T) ratios of 2:1 and 4:1 on RPMI-8226 cells. FIG. 8D is a graph showing the effects with effector:target (E:T) ratios of 2:1 and 4:1 on U266 cells.
(§2) The ability of peripheral blood NK cells with or without B7-H3-TriKE to kill myeloma cells was compared in live imaging IncuCyte Zoom assays with escalating doses of TriKE. Maximal killing occurred with 3 nM concentration.

H929 cells = experiment: IncuCyte Zoom NK cell killing of H929
Source text: as §1
FIGS. 9A-9D illustrate the efficacy of B7-H3-TriKE with the proteasome inhibitor bortezomib (10 nM) and the immunomodulatory drug lenalidomide (5 μM). FIG. 9A is a graph showing the effect of the combination therapy on H929 cells after 48 hours. FIG. 9B is a graph showing the effect of the combination therapy on RPMI-8226 cells after 48 hours. FIG. 9C is a graph showing the effect of the combination therapy on MM1S cells after 48 hours. FIG. 9D is a graph showing the effect of the combination therapy on U266 cells after 48 hours.
as §2
The efficacy of B7-H3-TriKE with the proteasome inhibitor bortezomib (10 nM) and the immunomodulatory drug lenalidomide (5 μM) was also tested. Cytotoxicity curves were compared by repeated measures ANOVA and performed in triplicate.

prostate cancer cells = experiment: NK cell function against prostate cancer cells (flow cytometry)
Protocol: FIG. 13A is a graph showing percent of NK cells expressing IFNγ against prostate cancer cell targets. FIG. 13B is a graph illustrating the proportion of NK cells undergoing 3 or more rounds of division.
ADCC was measured in a flow cytometry assay by evaluating degranulation via CD107a (lysosomal-associated membrane protein LAMP-1) and intracellular IFNγ production. Upon thawing, normal donor and patient-derived PBMCs or ascites cells were rested overnight (37° C., 5% CO2) in RPMI 1640 media supplemented with 10% fetal calf serum (RPMI-10). The next morning, they were suspended with tumor-target cells or media after washing twice with RPMI-10. Cells were then incubated with TriKEs or controls for 10 min at 37° C. Fluorescein isothiocyate (FITC)-conjugated anti-human CD107a monoclonal antibody (BD Biosciences, San Jose, CA, USA) was then added. Following an hour 37° C. incubation, GolgiStop (1:1500, BD Biosciences) and GolgiPlug (1:1000, BD Biosciences) were added for 3 h. After washing with phosphate buffered saline, the cells were stained with PE/Cy 7-conjugated anti-CD56 mAb, APC/Cy 7-conjugated anti-CD16 mAb, and PE-CF594-conjugated anti-CD3 mAb (BioLegend, San Diego, CA, USA). Cells were incubated for 15 min at 4° C., washed, and fixed with 2% paraformaldehyde. Cells were then permeabilized using an intracellular perm buffer (BioLegend) to evaluate production of IFNγ through detection via aBV650 conjugated anti-human IFNγ antibody (BioLegend). Samples were washed and evaluated in an LSRII flow cytometer (BD Biosciences, San Jose, CA, USA).
As illustrated in FIGS. 12A-12D, 14A-14L and 15A-15D cam1615B7-H3 TriKE targets prostate cancer. The ability of the cam1615B7-H3 TriKE to improve NK cell activity against prostate cancer was tested. All of the prostate cancer cell lines tested expressed B7-H3. For these tests, normal donor PBMCs and PBMCs obtained from metastatic prostate cancer patients were used.

Substance	NK cell mediated killing of myeloma lines ([1]; 3 nM B7-H3-TriKE, all four myeloma lines)	TriKE concentration giving maximal killing ([1]; escalating doses of TriKE, peripheral blood NK cells)	NK cell killing of H929 (H929 cells; E:T 2:1)	NK cell killing of H929 (H929 cells; E:T 4:1)	NK function (IFNγ) against prostate cancer cell targets vs IL-15 alone (prostate cancer cells; compared to IL-15 alone)	B7-H3 specificity of the signal (prostate cancer cells; with prostate cancer cells)	TriKE-induced signal vs natural cytotoxicity signal (prostate cancer cells; with prostate cancer cells)
B7-H3 TriKE: camelid nanobodies targeting CD16 and B7-H3 joined by IL-15 and two linkers; sequence table equates the name with cam1615B7-H3	statistically significant increase; also recorded: significantly enhanced NK cell mediated killing of myeloma cells	3 nM	more potently killed	no difference in killing	–	–	–
cam1615B7-H3: second-generation TriKE: humanized camelid anti-CD16 VHH, human wild-type IL-15, anti-B7-H3 mAb 376.96 scFv; SEQ ID NO:1	–	–	–	–	more potent at inducing NK function than IL-15 alone	specific to B7-H3	stronger than that induced by a strong natural cytotoxicity signal
